Literature values, collected in patent US5830503A (Andrx Pharmaceuticals, Inc., priority 1996, dated 1998).

Conditions: as compared to intravenous administration; first pass effect

- absolute bioavailability: about 40%
SMILES: COc1ccc([C@@H]2Sc3ccccc3N(CCN(C)C)C(=O)[C@@H]2OC(C)=O)cc1 [diltiazem]
